The source of these data is ChEMBL document CHEMBL5465560, “Selectivity Literature for EUbOPEN Chemogenomic Library” (2024).

The target of test [1] is Mitogen-activated protein kinase 10 (Homo sapiens, UniProt P53779). Briefly: Selectivity interaction (KinomeScan (DiscoverX)) EUB0000607a MAPK10. To be noted: at 10 µM.
Test [2] concerns the target Protein-tyrosine kinase 2-beta (Homo sapiens) (UniProt Q14289). Briefly: Selectivity interaction (KinomeScan (DiscoverX)) EUB0001079a PTK2B. To be noted: at 1 µM.
Test [3] deals with Serine/threonine-protein kinase PAK 6 (Homo sapiens) (UniProt Q9NQU5). Briefly: Selectivity interaction (KinomeScan (DiscoverX)) EUB0001619a PAK6. Particulars: at 1 µM.
Sequence of Serine/threonine-protein kinase PAK 6 (Homo sapiens) (Q9NQU5 whole entry, looked up): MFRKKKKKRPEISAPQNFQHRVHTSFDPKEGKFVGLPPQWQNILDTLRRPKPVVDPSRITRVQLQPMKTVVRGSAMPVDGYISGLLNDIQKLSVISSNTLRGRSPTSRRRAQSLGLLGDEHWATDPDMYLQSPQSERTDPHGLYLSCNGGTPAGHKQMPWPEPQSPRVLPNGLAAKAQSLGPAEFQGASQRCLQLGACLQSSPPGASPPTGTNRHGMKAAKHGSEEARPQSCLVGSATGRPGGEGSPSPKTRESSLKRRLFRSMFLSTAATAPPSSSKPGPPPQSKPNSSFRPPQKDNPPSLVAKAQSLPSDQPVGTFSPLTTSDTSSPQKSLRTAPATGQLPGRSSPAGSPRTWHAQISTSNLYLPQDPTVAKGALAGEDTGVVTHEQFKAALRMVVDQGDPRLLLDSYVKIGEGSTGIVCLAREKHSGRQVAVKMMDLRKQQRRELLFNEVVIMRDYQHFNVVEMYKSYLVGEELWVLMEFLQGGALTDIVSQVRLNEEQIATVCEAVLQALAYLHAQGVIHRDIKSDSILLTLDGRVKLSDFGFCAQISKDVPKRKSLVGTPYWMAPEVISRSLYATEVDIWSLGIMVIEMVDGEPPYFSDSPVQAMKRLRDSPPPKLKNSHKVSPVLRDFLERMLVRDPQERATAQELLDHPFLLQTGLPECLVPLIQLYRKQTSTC
The target of test [4] is T1, Serine/threonine-protein kinase Sgk2 (Homo sapiens) (UniProt Q9HBY8).
T1 sequence (whole entry): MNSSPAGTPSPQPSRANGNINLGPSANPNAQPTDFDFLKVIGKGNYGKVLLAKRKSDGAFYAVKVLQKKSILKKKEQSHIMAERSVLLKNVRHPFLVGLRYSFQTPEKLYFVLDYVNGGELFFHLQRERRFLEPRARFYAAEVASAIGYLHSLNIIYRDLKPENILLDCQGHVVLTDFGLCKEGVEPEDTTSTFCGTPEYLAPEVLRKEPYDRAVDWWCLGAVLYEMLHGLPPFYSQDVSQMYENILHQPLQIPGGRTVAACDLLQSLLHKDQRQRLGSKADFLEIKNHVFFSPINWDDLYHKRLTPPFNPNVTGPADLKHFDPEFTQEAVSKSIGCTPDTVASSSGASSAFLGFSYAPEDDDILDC
Briefly: Selectivity interaction (Kinase screening (Nanosyn)) EUB0000604a SGK2.

In test [5] the target is Mitogen-activated protein kinase kinase kinase 4 (Homo sapiens) (UniProt Q9Y6R4). Particulars: at 10 µM.
Sequence of Mitogen-activated protein kinase kinase kinase 4 (Homo sapiens) (Q9Y6R4 whole entry): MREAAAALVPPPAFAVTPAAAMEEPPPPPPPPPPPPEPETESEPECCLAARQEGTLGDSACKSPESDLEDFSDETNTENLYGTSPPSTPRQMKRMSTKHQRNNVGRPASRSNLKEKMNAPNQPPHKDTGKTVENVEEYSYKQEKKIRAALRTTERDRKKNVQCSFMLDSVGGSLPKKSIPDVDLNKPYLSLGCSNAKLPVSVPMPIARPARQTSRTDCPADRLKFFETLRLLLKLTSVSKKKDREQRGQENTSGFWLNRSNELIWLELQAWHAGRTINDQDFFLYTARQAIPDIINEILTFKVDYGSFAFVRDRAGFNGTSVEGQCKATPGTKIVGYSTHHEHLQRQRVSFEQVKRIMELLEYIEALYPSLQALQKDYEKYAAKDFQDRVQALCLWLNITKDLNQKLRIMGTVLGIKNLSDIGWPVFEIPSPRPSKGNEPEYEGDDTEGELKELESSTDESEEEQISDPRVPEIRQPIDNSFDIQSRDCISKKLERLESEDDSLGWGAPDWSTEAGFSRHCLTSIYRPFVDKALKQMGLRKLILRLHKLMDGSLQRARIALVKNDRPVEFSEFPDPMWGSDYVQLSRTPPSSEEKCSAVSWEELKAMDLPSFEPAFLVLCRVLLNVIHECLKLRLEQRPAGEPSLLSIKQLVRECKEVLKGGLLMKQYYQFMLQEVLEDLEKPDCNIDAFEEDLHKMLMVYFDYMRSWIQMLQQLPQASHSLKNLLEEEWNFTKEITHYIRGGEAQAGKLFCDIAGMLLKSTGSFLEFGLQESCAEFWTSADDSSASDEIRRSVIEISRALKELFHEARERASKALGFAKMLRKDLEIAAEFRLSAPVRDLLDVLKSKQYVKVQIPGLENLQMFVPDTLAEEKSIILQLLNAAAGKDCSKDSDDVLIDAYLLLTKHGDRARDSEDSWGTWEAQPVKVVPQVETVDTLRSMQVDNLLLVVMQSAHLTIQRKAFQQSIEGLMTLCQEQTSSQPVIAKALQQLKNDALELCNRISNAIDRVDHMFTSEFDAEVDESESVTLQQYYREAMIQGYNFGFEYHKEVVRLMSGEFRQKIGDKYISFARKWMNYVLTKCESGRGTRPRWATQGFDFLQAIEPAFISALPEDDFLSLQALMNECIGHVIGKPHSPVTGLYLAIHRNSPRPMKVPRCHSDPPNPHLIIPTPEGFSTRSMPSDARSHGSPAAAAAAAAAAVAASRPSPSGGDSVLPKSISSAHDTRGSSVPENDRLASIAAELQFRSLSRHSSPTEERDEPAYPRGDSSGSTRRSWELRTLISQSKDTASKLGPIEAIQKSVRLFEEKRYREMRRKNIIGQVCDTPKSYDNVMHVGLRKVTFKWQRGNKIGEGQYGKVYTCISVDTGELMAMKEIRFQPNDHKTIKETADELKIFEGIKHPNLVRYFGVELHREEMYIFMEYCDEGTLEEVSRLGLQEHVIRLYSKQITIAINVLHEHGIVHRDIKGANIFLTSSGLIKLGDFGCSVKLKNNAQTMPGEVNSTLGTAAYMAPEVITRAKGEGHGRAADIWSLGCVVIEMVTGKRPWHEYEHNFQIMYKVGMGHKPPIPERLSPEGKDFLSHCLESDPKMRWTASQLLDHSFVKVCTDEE
In test [6] the target is Ribosomal protein S6 kinase alpha-4 (Homo sapiens) (UniProt O75676). The experiment in a line: Selectivity interaction (KinomeScan (DiscoverX)) EUB0001049a RPS6KA4. To be noted: at 1 µM.
Sequence of Ribosomal protein S6 kinase alpha-4 (Homo sapiens) (O75676 whole entry, looked up, the tested form may be a part): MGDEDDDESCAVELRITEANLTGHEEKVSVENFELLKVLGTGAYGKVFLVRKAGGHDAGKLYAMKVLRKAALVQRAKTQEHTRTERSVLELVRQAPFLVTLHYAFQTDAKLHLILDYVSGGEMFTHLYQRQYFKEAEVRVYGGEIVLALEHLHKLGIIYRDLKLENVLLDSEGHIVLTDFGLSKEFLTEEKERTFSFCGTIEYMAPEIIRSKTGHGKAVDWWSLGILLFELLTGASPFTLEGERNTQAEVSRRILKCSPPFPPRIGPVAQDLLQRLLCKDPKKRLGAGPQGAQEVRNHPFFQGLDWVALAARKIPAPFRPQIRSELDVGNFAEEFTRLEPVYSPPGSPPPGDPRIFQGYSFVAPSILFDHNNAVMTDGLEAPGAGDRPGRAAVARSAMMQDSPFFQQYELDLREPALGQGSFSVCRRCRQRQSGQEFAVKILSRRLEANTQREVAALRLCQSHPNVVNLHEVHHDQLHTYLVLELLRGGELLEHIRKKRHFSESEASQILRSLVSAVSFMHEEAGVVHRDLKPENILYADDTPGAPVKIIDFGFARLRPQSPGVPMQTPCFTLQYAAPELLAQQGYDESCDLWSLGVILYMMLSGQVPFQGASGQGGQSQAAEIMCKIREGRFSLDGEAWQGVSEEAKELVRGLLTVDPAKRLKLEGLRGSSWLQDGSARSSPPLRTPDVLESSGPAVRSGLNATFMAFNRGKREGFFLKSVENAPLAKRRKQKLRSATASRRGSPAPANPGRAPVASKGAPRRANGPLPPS
Test [7] concerns the target T2, Phosphatidylinositol 3-kinase C2 domain-containing subunit gamma (Homo sapiens) (UniProt O75747).
T2 sequence (whole entry): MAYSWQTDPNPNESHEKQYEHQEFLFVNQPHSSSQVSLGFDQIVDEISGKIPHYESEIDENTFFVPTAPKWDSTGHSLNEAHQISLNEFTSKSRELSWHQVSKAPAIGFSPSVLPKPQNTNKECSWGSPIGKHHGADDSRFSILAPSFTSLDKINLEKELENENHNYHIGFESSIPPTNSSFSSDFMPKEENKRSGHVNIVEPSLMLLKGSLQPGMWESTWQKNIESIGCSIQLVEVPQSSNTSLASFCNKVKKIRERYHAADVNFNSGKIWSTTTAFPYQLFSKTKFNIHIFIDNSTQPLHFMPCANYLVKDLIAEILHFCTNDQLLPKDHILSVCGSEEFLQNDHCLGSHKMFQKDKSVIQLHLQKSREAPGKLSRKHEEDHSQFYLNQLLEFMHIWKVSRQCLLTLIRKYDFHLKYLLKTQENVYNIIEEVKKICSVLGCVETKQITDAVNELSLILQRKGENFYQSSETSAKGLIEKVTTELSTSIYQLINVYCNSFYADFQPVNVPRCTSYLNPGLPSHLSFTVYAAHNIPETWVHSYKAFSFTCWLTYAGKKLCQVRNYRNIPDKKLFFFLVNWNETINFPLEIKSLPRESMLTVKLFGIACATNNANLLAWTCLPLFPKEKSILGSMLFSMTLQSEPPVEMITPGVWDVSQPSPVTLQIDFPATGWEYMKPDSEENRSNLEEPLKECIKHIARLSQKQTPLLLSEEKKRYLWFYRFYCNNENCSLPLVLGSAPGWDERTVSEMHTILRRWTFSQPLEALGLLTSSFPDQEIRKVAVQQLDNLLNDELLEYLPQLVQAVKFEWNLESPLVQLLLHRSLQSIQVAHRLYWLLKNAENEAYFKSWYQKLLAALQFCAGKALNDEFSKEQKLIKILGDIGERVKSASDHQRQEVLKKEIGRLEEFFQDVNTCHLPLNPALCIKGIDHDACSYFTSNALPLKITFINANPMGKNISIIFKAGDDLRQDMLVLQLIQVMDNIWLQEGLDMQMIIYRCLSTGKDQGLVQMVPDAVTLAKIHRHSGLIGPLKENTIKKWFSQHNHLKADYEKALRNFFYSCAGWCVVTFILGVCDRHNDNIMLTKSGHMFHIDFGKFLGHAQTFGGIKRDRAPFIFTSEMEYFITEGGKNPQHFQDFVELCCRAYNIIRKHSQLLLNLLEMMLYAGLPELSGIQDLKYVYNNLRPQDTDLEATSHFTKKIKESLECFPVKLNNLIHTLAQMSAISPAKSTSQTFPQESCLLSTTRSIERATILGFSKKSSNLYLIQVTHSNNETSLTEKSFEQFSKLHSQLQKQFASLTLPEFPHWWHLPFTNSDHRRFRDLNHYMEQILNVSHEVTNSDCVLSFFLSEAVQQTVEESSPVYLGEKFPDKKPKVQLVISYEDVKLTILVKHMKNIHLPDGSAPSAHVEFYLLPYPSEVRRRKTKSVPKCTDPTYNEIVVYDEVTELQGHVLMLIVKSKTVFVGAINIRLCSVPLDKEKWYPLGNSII
The experiment in a line: Selectivity interaction (KinomeScan (DiscoverX)) EUB0000092b PIK3C2G. Particulars: at 10 µM.

Test [8] addresses Mitogen-activated protein kinase kinase kinase 9 (Homo sapiens) (UniProt P80192). Briefly: Selectivity interaction (KinomeScan (DiscoverX)) EUB0000045b MAP3K9.

Sequence of Mitogen-activated protein kinase kinase kinase 9 (Homo sapiens) (P80192 whole entry, looked up): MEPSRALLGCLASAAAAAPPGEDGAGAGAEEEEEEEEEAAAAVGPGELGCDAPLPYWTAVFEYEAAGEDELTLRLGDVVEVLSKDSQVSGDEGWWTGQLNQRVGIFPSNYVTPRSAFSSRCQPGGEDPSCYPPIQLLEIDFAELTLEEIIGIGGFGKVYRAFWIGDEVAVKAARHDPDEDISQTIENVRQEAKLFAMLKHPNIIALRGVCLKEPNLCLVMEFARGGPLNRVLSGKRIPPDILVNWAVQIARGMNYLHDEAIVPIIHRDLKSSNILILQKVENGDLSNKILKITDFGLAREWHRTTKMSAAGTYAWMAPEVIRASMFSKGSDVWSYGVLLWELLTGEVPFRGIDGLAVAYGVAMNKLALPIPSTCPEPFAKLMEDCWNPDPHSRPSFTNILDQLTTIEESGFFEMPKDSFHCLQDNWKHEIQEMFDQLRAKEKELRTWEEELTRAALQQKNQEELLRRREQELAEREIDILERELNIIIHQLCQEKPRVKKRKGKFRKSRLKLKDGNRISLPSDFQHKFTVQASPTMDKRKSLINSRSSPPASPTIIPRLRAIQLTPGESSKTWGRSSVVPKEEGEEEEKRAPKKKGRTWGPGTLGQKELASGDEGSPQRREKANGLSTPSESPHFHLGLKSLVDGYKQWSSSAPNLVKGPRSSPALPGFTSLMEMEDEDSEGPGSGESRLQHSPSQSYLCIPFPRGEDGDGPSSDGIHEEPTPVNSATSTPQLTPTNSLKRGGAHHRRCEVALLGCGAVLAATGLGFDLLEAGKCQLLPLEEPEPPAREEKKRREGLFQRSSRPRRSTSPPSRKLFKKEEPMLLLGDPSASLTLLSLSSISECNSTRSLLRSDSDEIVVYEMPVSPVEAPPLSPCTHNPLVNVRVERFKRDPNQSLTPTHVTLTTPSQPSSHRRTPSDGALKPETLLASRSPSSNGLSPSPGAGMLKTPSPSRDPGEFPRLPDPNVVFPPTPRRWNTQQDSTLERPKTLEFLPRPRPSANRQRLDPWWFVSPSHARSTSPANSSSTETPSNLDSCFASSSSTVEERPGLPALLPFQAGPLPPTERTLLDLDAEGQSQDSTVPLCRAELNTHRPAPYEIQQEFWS
Sequence of Mitogen-activated protein kinase 10 (P53779 whole entry): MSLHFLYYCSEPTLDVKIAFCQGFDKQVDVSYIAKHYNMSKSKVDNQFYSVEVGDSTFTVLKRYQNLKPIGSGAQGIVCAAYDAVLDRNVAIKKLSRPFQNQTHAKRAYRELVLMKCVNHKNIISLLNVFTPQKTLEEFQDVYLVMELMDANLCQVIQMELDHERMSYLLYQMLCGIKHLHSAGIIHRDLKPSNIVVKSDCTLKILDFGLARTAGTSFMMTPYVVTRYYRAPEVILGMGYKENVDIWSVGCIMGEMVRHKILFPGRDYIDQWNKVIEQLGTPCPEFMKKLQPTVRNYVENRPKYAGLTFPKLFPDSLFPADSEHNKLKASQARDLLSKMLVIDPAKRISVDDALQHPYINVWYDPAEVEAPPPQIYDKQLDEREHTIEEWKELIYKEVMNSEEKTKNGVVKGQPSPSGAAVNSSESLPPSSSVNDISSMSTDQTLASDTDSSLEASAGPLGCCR

Regarding `CNC(=O)Nc1ccc(-c2nc(N3CC4CCC(C3)O4)c3cnn(C4CCC5(CC4)OCCO5)c3n2)cc1`, the % of control in test [1] amounted to 86%.

`Nc1cnc(N2CCc3cc(S(=O)(=O)Nc4c(F)cc(Cl)cc4F)cc(N4CCCC4=O)c32)nc1` [TP-020n] displayed a % of control in test [2] of 100%.

Regarding `N#Cc1cccc(-c2c[nH]c3ncnc(N4CCOCC4)c23)c1`, the % of control in test [3] was found to be 78%.

As to `Cc1cnc(Nc2ccc(F)cc2Cl)nc1-c1c[nH]c(C(=O)N[C@H](CO)c2cccc(Cl)c2)c1`, the % of inhibition in test [4] stood at 41%.

In turn, `CCN(CC)CCCCNc1ncc2cc(-c3cc(OC)cc(OC)c3)c(NC(=O)NC(C)(C)C)nc2n1` returned a % of control in test [5] of 100%.

`COc1cc(Nc2nc(C)cc(-c3cnn4nc(OC)ccc34)n2)cc(C(F)(F)F)c1` registered a % of control in test [6] of 96%.

On to `CCC(=O)N1CCN(c2ccc(-n3c(=O)ccc4cnc5ccc(-c6cnc7ccccc7c6)cc5c43)cc2C(F)(F)F)CC1`, for which the % of control in test [7] was 11%.

Take `C=CC(=O)Nc1cc(-n2c(=O)ccc3cnc4ccc(-c5ccc(NS(C)(=O)=O)cc5)cc4c32)ccc1C`: the % of control was 100% in test [8] (at 1 µM) and 83% in test [8] (at 10 µM).
